29 compounds from PMC8664850, “Design, synthesis, and biological evaluation of novel urolithins derivatives as potential phosphodiesterase II inhibitors” (Scientific Reports, 2021) can be followed below.

Data set [1] concerns the target T1, Phosphodiesterase II (PDE2) (Homo sapiens, UniProt O00408).
T1 construct: the recombinant plasmid pET15b-PDE2A (580–941) was donated; made in house; host or cells: E. coli BL21-Codon Plus (DE3)
Nature of the data set: PDE2 enzyme inhibitory activity, AlphaScreen cAMP kit method. The data set is classed as biochemical. Particulars: in vitro, enzyme level, seven concentrations, mean of at least three experiments. (In general: Alpha assays give light when donor and acceptor beads are brought close together.)
From the text: The AlphaScreen kit method was used to detect PDE2 inhibitory activity of the 27 synthesized compounds (2a–n and 4a–m) in vitro, each diluted at seven concentrations, and each carried out with three sets of parallel experiments. The IC50 values were obtained by fitting calculations using software Graphpad Prism 7.

Structures are written as SMILES. pIC50: −log10 of the molar value.

Usually pIC50 stands for the negative decadic logarithm of the IC50, by convention in mol/L. A higher pIC50 goes with a low IC50. Usually melting point stands for the temperature of the solid-liquid transition.

T1 sequence (O00408 580-941): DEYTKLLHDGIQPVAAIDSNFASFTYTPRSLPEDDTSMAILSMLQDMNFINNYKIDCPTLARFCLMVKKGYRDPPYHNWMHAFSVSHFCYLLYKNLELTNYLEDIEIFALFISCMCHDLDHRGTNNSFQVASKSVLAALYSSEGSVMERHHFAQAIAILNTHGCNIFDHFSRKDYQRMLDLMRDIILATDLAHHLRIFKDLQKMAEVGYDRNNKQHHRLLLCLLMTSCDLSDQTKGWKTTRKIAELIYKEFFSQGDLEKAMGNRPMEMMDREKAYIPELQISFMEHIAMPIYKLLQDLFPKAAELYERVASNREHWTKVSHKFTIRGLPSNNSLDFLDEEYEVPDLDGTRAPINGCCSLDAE

`Cc1ccc2c(c1)c(=O)oc1cc(O)ccc12` [Compound 1, 3-hydroxy-8-methyl-6H-benzo [C]chromen-6-one] had a pIC50 in data set [1] of less than 4.00. On the same count and under the same terms, then `CCOc1ccc2c(c1)oc(=O)c1cc(C)ccc12` [Compound 2a, 3-ethoxy-8-methyl-6H-benzo[c]chromen-6-one], with less than 4.00. In turn, `CCCOc1ccc2c(c1)oc(=O)c1cc(C)ccc12` [Compound 2b, 8-methyl-3-propoxy-6H-benzo[c]chromen-6-one] registered a melting point of 112.3 to 112.6 °C. This compound showed a pIC50 in data set [1] of less than 4.00. The like results for `Cc1ccc2c(c1)c(=O)oc1cc(OC(C)C)ccc12` [Compound 2c, 3-isopropoxy-8-methyl-6H-benzo[c]chromen-6-one] were, in that order, 102.3 to 103 °C and less than 4.00. The like results for `CCC(C)Oc1ccc2c(c1)oc(=O)c1cc(C)ccc12` (centres unmarked) [Compound 2d, 3-(sec-butoxy)-8-methyl-6H-benzo[c]chromen-6-one] were, in that order, 62.6 to 63.4 °C and less than 4.00.

`CCCCCOc1ccc2c(c1)oc(=O)c1cc(C)ccc12` [Compound 2e, 8-methyl-3-(pentyloxy)-6H-benzo[c]chromen-6-one] gave a pIC50 in data set [1] of 4.47.

As for `Cc1ccc2c(c1)c(=O)oc1cc(OCC3CCCC3)ccc12` [Compound 2f, 3-(cyclopentylmethoxy)-8-methyl-6H-benzo[c]chromen-6-one], the melting point was 122.8 to 123.6 °C. The pIC50 in data set [1] was less than 4.00.

In the case of `Cc1ccc2c(c1)c(=O)oc1cc(OCC3CCCO3)ccc12` (centres unmarked) [Compound 2g, 8-methyl-3-((tetrahydrofuran-2-yl)methoxy)-6H-benzo[c]chromen-6-one], the melting point fell in the range of 122.8 to 123.6 °C. Moreover, in data set [1], the pIC50 is less than 4.00.

For `Cc1ccc2c(c1)c(=O)oc1cc(OCC3OCCO3)ccc12` [Compound 2h, 3-((1,3-dioxolan-2-yl)methoxy)-8-methyl-6H-benzo[c]chromen-6-one], the melting point fell in the range of 148.2 to 148.8 °C. Also, the pIC50 in data set [1] was less than 4.00. Compound `Cc1ccc2c(c1)c(=O)oc1cc(OCCC3OCCO3)ccc12` [Compound 2i, 3-(2-(1,3-dioxolan-2-yl)ethoxy)-8-methyl-6H-benzo[c]chromen-6-one] had a pIC50 in data set [1] of less than 4.00. As to `Cc1ccc2c(c1)c(=O)oc1cc(OCC3CCCCC3)ccc12` [Compound 2j, 3-(cyclohexylmethoxy)-8-methyl-6H-benzo[c]chromen-6-one], the melting point lay within 113.3 to 115.1 °C. Moreover, the pIC50 in data set [1] was 4.18. The corresponding values for `Cc1ccc2c(c1)c(=O)oc1cc(OCC3CCOCC3)ccc12` [Compound 2k, 8-methyl-3-((tetrahydro-2H-pyran-4-yl)methoxy)-6H-benzo[c]chromen-6-one] are 148 to 148.6 °C and less than 4.00.

`Cc1ccc2c(c1)c(=O)oc1cc(OCc3ccccc3F)ccc12` [Compound 2l, 3-((2-fluorobenzyl)oxy)-8-methyl-6H-benzo[c]chromen-6-one]: the melting point was in the range of 154.9 to 155.5 °C. For the same compound, the pIC50 in data set [1] was less than 4.00. The corresponding values for `Cc1ccc2c(c1)c(=O)oc1cc(OCCC3OCCCO3)ccc12` [Compound 2m, 3-(2-(1,3-dioxan-2-yl)ethoxy)-8-methyl-6H-benzo[c]chromen-6-one] are 170.1 to 172 °C and less than 4.00.

As to `COc1cc(COc2ccc3c(c2)oc(=O)c2cc(C)ccc23)cc(OC)c1` [Compound 2n, 3-((3,5-dimethoxybenzyl)oxy)-8-methyl-6H-benzo[c]chromen-6-one], the melting point was in the range of 158.7 to 160.2 °C. Moreover, the pIC50 in data set [1] was less than 4.00. `O=c1oc2cc(O)ccc2c2c1CCCC2` [Compound 3, 3-Hydroxy-7,8,9,10-tetrahydro-6H-benzo[c]chromen-6-one] gave a pIC50 in data set [1] of 4.03.

`CCOc1ccc2c3c(c(=O)oc2c1)CCCC3` [Compound 4a, 3-ethoxy-7,8,9,10-tetrahydro-6H-benzo[c]chromen-6-one] displayed a melting point of 104.2 to 105.6 °C. This compound also had a pIC50 in data set [1] of less than 4.00.

`CCCOc1ccc2c3c(c(=O)oc2c1)CCCC3` [Compound 4b, 3-propoxy-7,8,9,10-tetrahydro-6H-benzo[c]chromen-6-one] returned a melting point of 107.1 to 108.3 °C. Moreover, in data set [1], the pIC50 is less than 4.00.

`CC(C)Oc1ccc2c3c(c(=O)oc2c1)CCCC3` [Compound 4c, 3-isopropoxy-7,8,9,10-tetrahydro-6H-benzo[c]chromen-6-one]: the melting point lay in the range of 85.4 to 87.5 °C. This compound also showed a pIC50 in data set [1] of 4.46. For the compound `CCC(C)Oc1ccc2c3c(c(=O)oc2c1)CCCC3` (centres unmarked) [Compound 4d, 3-(sec-butoxy)-7,8,9,10-tetrahydro-6H-benzo[c]chromen-6-one], the melting point is 74 to 74.2 °C. For the same compound, the pIC50 in data set [1] is less than 4.00. In turn, `CCCCCOc1ccc2c3c(c(=O)oc2c1)CCCC3` [Compound 4e, 3-(pentyloxy)-7,8,9,10-tetrahydro-6H-benzo[c]chromen-6-one] returned a melting point of 110.6 to 112.4 °C. For the same compound, the negative-log IC50 (pIC50) in data set [1] is less than 4.00.

`O=c1oc2cc(OCC3CCCO3)ccc2c2c1CCCC2` (centres unmarked) [Compound 4f, 3-((tetrahydrofuran-2-yl)methoxy)-7,8,9,10-tetrahydro-6H-benzo[c]chromen-6-one]: the melting point is 112.2 to 114 °C. Moreover, the pIC50 in data set [1] is less than 4.00. The like results for `O=c1oc2cc(OCC3OCCO3)ccc2c2c1CCCC2` [Compound 4g, 3-((1,3-dioxolan-2-yl)methoxy)-7,8,9,10-tetrahydro-6H-benzo[c]chromen-6-one] were, in that order, 128.1 to 129.5 °C and less than 4.00. With `O=c1oc2cc(OCCC3OCCO3)ccc2c2c1CCCC2` [Compound 4h, 3-(2-(1,3-dioxolan-2-yl)ethoxy)-7,8,9,10-tetrahydro-6H-benzo[c]chromen-6-one], the melting point fell in the range of 111 to 112.3 °C. In data set [1], this compound gave a pIC50 of less than 4.00. The corresponding values for `O=c1oc2cc(OCC3CCCCC3)ccc2c2c1CCCC2` [Compound 4i, 3-(cyclohexylmethoxy)-7,8,9,10-tetrahydro-6H-benzo[c]chromen-6-one] are 107.2 to 109.3 °C and less than 4.00.

The compound `O=c1oc2cc(OCC3CCOCC3)ccc2c2c1CCCC2` [Compound 4j, 3-((tetrahydro-2H-pyran-4-yl)methoxy)-7,8,9,10-tetrahydro-6H-benzo[c]chromen-6-one] registered a melting point of 124.6 to 125.2 °C. Moreover, the pIC50 in data set [1] was less than 4.00. The like results for `O=c1oc2cc(OCCC3OCCCO3)ccc2c2c1CCCC2` [Compound 4k, 3-(2-(1,3-dioxan-2-yl)ethoxy)-7,8,9,10-tetrahydro-6H-benzo[c]chromen-6-one] were, in that order, 107.5 to 108.4 °C and less than 4.00.

`O=c1oc2cc(OCc3ccccc3F)ccc2c2c1CCCC2` [Compound 4l, 3-((2-fluorobenzyl)oxy)-7,8,9,10-tetrahydro-6H-benzo[c]chromen-6-one] displayed a melting point of 124.2 to 125.6 °C. The pIC50 in data set [1] was less than 4.00. The corresponding values for `COc1cc(COc2ccc3c4c(c(=O)oc3c2)CCCC4)cc(OC)c1` [Compound 4m, 3-((3,5-dimethoxybenzyl)oxy)-7,8,9,10-tetrahydro-6H-benzo[c]chromen-6-one] are 98.5 to 99.2 °C and less than 4.00.
